Results as given in paper PMC3898741, “Substituted imidazopyridazines are potent and selective inhibitors of Plasmodium falciparum calcium-dependent protein kinase 1 (PfCDPK1)” (Bioorganic & Medicinal Chemistry Letters, 2013).
Read-outs that look alike come from different tables or passages of the source.

Key:
PfCDPK1 = PfCDPK1 (Plasmodium falciparum, UniProt P62344); assay: PfCDPK1 enzyme inhibition (Kinase-Glo ATP depletion); format: biochemical; conditions: for IC50: isolated recombinant enzyme
Sequence of PfCDPK1 (P62344 whole entry, the tested form may be a part): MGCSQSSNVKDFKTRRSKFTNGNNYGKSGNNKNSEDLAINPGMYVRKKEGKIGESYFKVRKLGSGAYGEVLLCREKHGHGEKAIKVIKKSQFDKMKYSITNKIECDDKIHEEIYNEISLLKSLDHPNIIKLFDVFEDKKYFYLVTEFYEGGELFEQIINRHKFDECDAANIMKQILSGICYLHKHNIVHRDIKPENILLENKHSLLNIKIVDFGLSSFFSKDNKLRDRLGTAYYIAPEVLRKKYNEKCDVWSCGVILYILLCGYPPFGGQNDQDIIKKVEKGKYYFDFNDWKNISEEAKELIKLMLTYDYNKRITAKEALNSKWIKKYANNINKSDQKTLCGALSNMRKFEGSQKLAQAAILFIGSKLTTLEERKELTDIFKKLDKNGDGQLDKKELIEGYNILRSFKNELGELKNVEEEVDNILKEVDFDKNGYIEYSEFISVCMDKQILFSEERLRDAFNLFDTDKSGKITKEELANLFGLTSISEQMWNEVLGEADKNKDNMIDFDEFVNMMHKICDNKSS
Description: [10] A high throughput screen of 35,422 compounds comprising a diverse set of small molecules from a variety of commercial suppliers and 8100 kinase-focused compounds (BioFocus) was performed using Kinase-Glo® (Promega) to measure ATP depletion resulting from the kinase reaction. Full length recombinant PfCDPK1 was incubated with MyoA-Tail domain Interacting Protein (MTIP) substrate and the amount of ATP remaining after 1 h was measured by luminescence using a Pherastar plate reader (BMG Labtech).

P. falciparum parasite = assay: In vitro P. falciparum parasite growth (FACS, hydroethidine); format: cell-based, Plasmodium falciparum; conditions: for inhibition at 1 µM / EC50: Plasmodium falciparum; for inhibition at 1 µM: at 1 μM inhibitor concentration
Description: [15] P. falciparum EC50 values were measured using an in vitro model of malaria parasite growth. Compounds were diluted into 2% DMSO and added to parasites 24 h post-invasion in a 96-well plate and incubated under static conditions. Cells were recovered 48 h later and processed for FACS analysis using hydroethidine to stain parasite DNA. Data was acquired using CellQuest Pro software on a FACSCalibur (Becton Dickinson). Growth inhibition was calculated using the following formula: % growth inhibition = (1 − [parasitaemia of culture/parasitaemia of control culture]) ×100.

[1] = Mouse liver microsome stability (MLM); format: in vitro ADME; conditions: % remaining at 30 min, mouse microsomes
[2] = Human liver microsome stability (HLM); format: in vitro ADME; conditions: % remaining at 30 min, human microsomes
Measured log D = format: physicochemical
Source text: Table 6 In vitro ADME and in vivo efficacy data for selected compounds | column: 17; 24; 27; 28

P. berghei = assay: 4-Day Peters test in P. berghei mouse model; format: in vivo; conditions: oral once daily 50 mg/kg, 4 days, relative to vehicle
Description: In advance of in vivo testing, it was shown that the inhibitors retained potency against the isolated P. berghei CDPK1 enzyme.[16] Compounds were dosed with an oral, once daily 50 mg/kg regime over 4 days in the standard Peters test, and their in vitro ADME and in vivo efficacy data is shown in Table 6.

Mouse pharmacokinetics = format: in vivo
[3] = biological target: 73-member human kinase panel; assay: Kinase selectivity against 73-member human kinase panel; format: biochemical; conditions: 1 μM inhibitor concentration; for Kinases hit in human kinase panel: 73-member panel
Description: [17] Kinase selectivity profiling was carried out at the National Centre for Protein Kinase Profiling in the MRC Protein Phosphorylation Unit at the University of Dundee.

PAMPA permeability = format: in vitro ADME
[4] = in vitro parasite growth, 48 h, read-out: P. falciparum EC50

SMILES	IC50 (PfCDPK1)	EC50 (P. falciparum parasite; [4])	further results
NC(=O)c1ccc(-c2cnc3ccc(NCCc4ccccn4)nn23)cc1 [Compound 2]	61 nM	–	inhibition at 1 µM (P. falciparum parasite): 99%
CC(=O)Nc1cccc(-c2cnc3ccc(NCCc4ccccn4)nn23)c1 [Compound 3]	66 nM	–	inhibition at 1 µM (P. falciparum parasite): 35%
Fc1cccc(-c2cnc3ccc(NCCc4cccnc4)nn23)c1 [Compound 5]	80 nM	–	inhibition at 1 µM (P. falciparum parasite): 6%
CC(=O)Nc1cccc(-c2cnc3ccc(N[C@H]4CC[C@H](N)CC4)nn23)c1 [Compound 6]	11 nM	320 nM	–
COC(=O)Nc1cccc(-c2cnc3ccc(NC4CCN(C)CC4)nn23)c1 [Compound 8]	18 nM	750 nM	–
CC(C)CCNC(=O)c1ccc(-c2cnc3ccc(N[C@H]4CC[C@H](N)CC4)nn23)cc1 [Compound 9]	16 nM	460 nM	EC50 against the P. falciparum parasite (P. falciparum parasite): sub-micromolar
CC(C)CCNc1ccc(-c2cnc3ccc(NC4CCN(C)CC4)nn23)cn1 [Compound 17]	–	400 nM	EC50 (P. falciparum parasite; P. falciparum, read-out: Cell potency): < 500 nM; MLM (% rem) [1]: 63 % rem; HLM (% rem) [2]: 85 % rem; logD (Measured log D): 3.4; Reduction in parasitaemia in vivo (P. berghei): 46%; Clearance (in words) (Mouse pharmacokinetics): moderate to high clearance; Oral bioavailability in mouse (in words) (Mouse pharmacokinetics): good oral bioavailability; i.v. t1/2 (Mouse pharmacokinetics): 2 h; Oral %F (Mouse pharmacokinetics; oral): 84%; Kinases hit in human kinase panel [3]: MKK1, RSK1, PKD1, CHK2, Aurora B, NUAK1, GCK, MLK1, Src, Lck, YES1, and VEGFR
CCCCNc1ccc(-c2cnc3ccc(NC4CCN(C)CC4)nn23)cn1 [Compound 18]	14 nM	430 nM	–
CN1CCC(Nc2ccc3ncc(-c4ccc(NCC5CC5)nc4)n3n2)CC1 [Compound 19]	36 nM	450 nM	–
COCCNc1ccc(-c2cnc3ccc(NC4CCN(C)CC4)nn23)cn1 [Compound 20]	25 nM	670 nM	–
CC(C)CCNc1cc(-c2cnc3ccc(NC4CCN(C)CC4)nn23)ccn1 [Compound 21]	88 nM	–	Loss in potency against the enzyme in comparison to 17 (PfCDPK1; PfCDPK1): sevenfold loss in potency
CC(C)CCNc1ccc(-c2cnc3ccc(N4CCN(C)CC4)nn23)cn1 [Compound 26]	175 nM	2400 nM	–
CC(C)CCNc1ccc(-c2cnc3ccc(N4CCC(N(C)C)CC4)nn23)cn1 [Compound 27]	44 nM	570 nM	MLM (% rem) [1]: 84 % rem; HLM (% rem) [2]: 80 % rem; logD (Measured log D): 3.2; Papp (PAMPA permeability): 13.7 ×10⁻⁶ cm/s; Reduction in parasitaemia in vivo (P. berghei): 7%
CC(C)CCNc1ccc(-c2cnc3ccc(N4CCC(N)CC4)nn23)cn1 [Compound 28]	13 nM	140 nM	MLM (% rem) [1]: 90 % rem; HLM (% rem) [2]: 90 % rem; logD (Measured log D): 2.5; Papp (PAMPA permeability): 5.5 ×10⁻⁶ cm/s; Reduction in parasitaemia in vivo (P. berghei): 11%; Selectivity profile against panel of human kinases [3]: good selectivity profiles; Kinases hit in human kinase panel [3]: RSK1, CAMK1, PHK, NUAK1, and HER4
CC(C)CCOc1ccc(-c2cnc3ccc(N[C@H]4CC[C@H](N)CC4)nn23)cn1 [Compound 30]	170 nM	540 nM	–
CC(C)CCNc1ncc(-c2cnc3ccc(NC4CCN(C)CC4)nn23)cn1 [Compound 31]	14 nM	470 nM	–
CC(C)CCNc1ncc(-c2cnc3ccc(N[C@H]4CC[C@H](N)CC4)nn23)cn1 [Compound 32]	16 nM	170 nM	–

The remaining compounds from weak to strong by IC50 (PfCDPK1), led by results:

IC50 (PfCDPK1)	EC50 (P. falciparum parasite; [4])	SMILES	further results
424 nM	–	CC(C)CCNc1nccc(-c2cnc3ccc(NC4CCN(C)CC4)nn23)n1 [Compound 33]	–
89 nM	930 nM	CC(C)CCNc1ccc(-c2cnc3ccc(NC4CN(C)C4)nn23)cn1 [Compound 25]	–
71 nM	–	N#Cc1ccc(-c2cnc3ccc(NCCc4cccnc4)nn23)cc1 [Compound 4]	inhibition at 1 µM (P. falciparum parasite): 98%
59 nM	–	NC(=O)c1ccc(-c2cnc3ccc(NCCc4cccnc4)nn23)cc1 [Compound 1]	inhibition at 1 µM (P. falciparum parasite): 99%
23 nM	780 nM	CC(C)CCNC(=O)c1ccc(-c2cnc3ccc(NC4CCN(C)CC4)nn23)cc1 [Compound 10]	EC50 against the P. falciparum parasite (P. falciparum parasite): sub-micromolar
23 nM	170 nM	CC(C)CCNc1ccc(-c2cnc3ccc(NC4CCN(C)C4)nn23)cn1 (stereo not shown) [Compound 24]	MLM (% rem) [1]: 74 % rem; HLM (% rem) [2]: 63 % rem; logD (Measured log D): 3.5; Papp (PAMPA permeability): 11.4 ×10⁻⁶ cm/s; Reduction in parasitaemia in vivo (P. berghei): 30%; Selectivity profile against panel of human kinases [3]: good selectivity profiles; Kinases hit in human kinase panel [3]: RSK1 and HER4
22 nM	560 nM	CN1CCC(Nc2ccc3ncc(-c4cccc(NC(=O)C5CC5)c4)n3n2)CC1 [Compound 7]	–
15 nM	240 nM	CC(C)CCNc1ccc(-c2cnc3ccc(NC4CCNCC4)nn23)cn1 [Compound 29]	–
